Test results as given in US20260109699A1, “AZOLE DERIVATIVES AS SHP2 INHIBITORS” (IRBM S.P.A., priority 2022, published 2026).

Legend:
[1] = target: T1, SHP-2 enzyme (Met1-Leu525), SHP2wt (Homo sapiens, UniProt Q06124); assay: SHP2 inhibition enzymatic assay; format: biochemical; conditions: 0.5 nM SHP-2 activated by 500 nM IRS1 peptide, 75 μM DiFMUP substrate
T1 construct: synthetized by Origene, Met1-Leu525, cat #TP750155; purchased Origene TP750155
T1 sequence (Q06124 1-525): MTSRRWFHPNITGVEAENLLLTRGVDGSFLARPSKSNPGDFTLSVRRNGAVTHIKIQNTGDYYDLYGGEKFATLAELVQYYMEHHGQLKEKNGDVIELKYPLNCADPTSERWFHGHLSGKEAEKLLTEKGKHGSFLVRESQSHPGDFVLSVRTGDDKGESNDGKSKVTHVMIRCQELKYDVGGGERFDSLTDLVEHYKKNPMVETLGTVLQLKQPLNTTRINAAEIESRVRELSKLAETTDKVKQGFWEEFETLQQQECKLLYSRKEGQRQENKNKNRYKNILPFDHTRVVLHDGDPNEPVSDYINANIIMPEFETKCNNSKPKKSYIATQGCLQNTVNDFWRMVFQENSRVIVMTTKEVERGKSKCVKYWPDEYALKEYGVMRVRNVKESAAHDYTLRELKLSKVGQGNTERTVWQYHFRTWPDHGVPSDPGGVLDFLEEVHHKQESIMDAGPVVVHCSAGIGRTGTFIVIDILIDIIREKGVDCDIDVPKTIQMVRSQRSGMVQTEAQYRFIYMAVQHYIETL
Experimental: The assay was performed as described in YP Chen et al, Nature (535) 2016. Assay volume of 20 μL/well was assembled in 384 well black polystyrene low-binding microplates (Greiner), using the following buffer: 60 mM HEPES pH 7.2, 75 mM NaCl, 75 mM KCl, 1 mM EDTA pH 8, 0.05% tween-20, 5 mM DTT. The SHP-2 enzyme (synthetized by Origene, Met1-Leu525, cat #TP750155) was used at a final concentration of 0.5 nM. The enzyme was activated by 500 nM IRS1 peptide (sequence: H2N-LN(pY)IDLDLV(dPEG8)LST(pY)ASINFQK-amide; Wang et al., iScience 25,104009, Apr. 15, 2022, https://doi.org/10.1016/j.isci.2022.104009) and incubated with 75 μM DiFMUP (Sigma) as substrate.
Briefly, DMSO serially diluted testing compounds were transferred to the bottom of the assay plate. SHP2 was then added together with the IRS1 peptide 30 min post incubation, the DiFMUP substrate was added to the reaction and incubated 30 min at rt. Finally 5 μL of 160 μM bpV (potassium bisperoxo[1,10-phenanthroline]oxovanadate [V], Sigma) were added to stop and quench the reaction. The fluorescence was detected by a microplate reader (Envision, PerkinElmer) according to the DiFMUP excitation and emission wavelength. The lower the fluorescence the higher the SHP2 inhibition.
The activity of each compound dilution was calculated as percentage of inhibition between vehicle (DMSO, 0% inhibition) and no enzyme (100% inhibition). The percentage inhibition is fitted against the compound dilutions with a four-parameter logistic regression. The inflection point (i.e. the concentration at which half-maximal inhibition is achieved) is the IC50.
Legend: A indicates IC50 less or equal to 0.05 μM; B indicates IC50 greater than 0.05 μM and lower or equal to 0.3 μM.

[2] = system: phospho-ERK1/2 (Thr202/Tyr204); assay: Phospho-ERK cellular assay; format: cell-based; conditions: Homo sapiens; KYSE-520 cells, 2 h at 37° C, TR-FRET; read-out: pERK IC50
Experimental: ERK phosphorylation was detected using the “Advanced phospho-ERK1/2 (Thr202/Tyr204)” TR-FRET kit (Cisbio, Cat #64AERPEG/H), following the manufacturer reagents and instructions.
Briefly, 20.000/well KYSE-520 cells (DSMZ ACC 371) were plated in 6 μL RPMI-1640 (Invitrogen) growth medium, into 384 white low-volume high base TC microplates (Greiner). After an overnight incubation, cells were treated with DMSO serial diluted compounds and incubated for 2 h at 37° C. After incubation, 2 μL/well of 4×Lysis Buffer (Cisbio 64KL1FDF), were added and incubated with cells for 30 min on gentle shaking. Finally, lysates were added with 2 μL/well of Eu cryptate (donor) and D2 (acceptor) conjugated antibodies (as provided by the Cisbio kit #64AERPEG/H) diluted 1:100 in Detection Buffer (as provided by the Cisbio kit #64AERPEG/H). Plates were then sealed and incubated at rt in the dark. After an overnight incubation, the TR-FRET signal was detected on a suitable reader (Envision, PerkinElmer).
The lower the TR-FRET signal the higher the higher the SHP2 inhibition in cells.
The activity of each compound dilution was calculated as percentage between vehicle DMSO treated cells and no cells, 0% inhibition and 100% inhibition respectively. The percentage activity is fitted against the compound dilutions with a four-parameter logistic regression. The inflection point (i.e. the concentration at which half-maximal inhibition is achieved) is the IC50.
Legend: “+” indicates IC50 equal or higher than 0.5 μM; “++” indicates IC50 less than 0.5 μM and higher or equal to 0.1 μM; “+++” indicates IC50 less than 0.1 μM.

| IC50 [1] [nM] | IC50 [2] [nM] | SMILES |
| --- | --- | --- |
| ≤ 50 | < 100 | N[C@@H]1c2ccnn2CC12CCN(c1cnc(Sc3cc(F)cc(F)c3)cn1)CC2 [Example 50, (S)-1-(5-((3,5-difluorophenyl)thio)pyrazin-2-yl)-4′H,6′H-spiro[piperidine-4,5′-pyrrolo[1,2-b]pyrazol]-4′-amine] |
| ≤ 50 | 100 to 500 | N[C@@H]1c2ccnn2CC12CCN(c1cnc(Sc3cccc(F)c3)cn1)CC2 [Example 51, (S)-1-(5-((3-fluorophenyl)thio)pyrazin-2-yl)-4′H,6′H-spiro[piperidine-4,5′-pyrrolo[1,2-b]pyrazol]-4′-amine] |
| ≤ 50 | < 100 | N[C@@H]1c2ccnn2CC12CCN(c1cnc(Sc3cccc4c3COC4)cn1)CC2 [Example 52, (S)-1-(5-((1,3-dihydroisobenzofuran-4-yl)thio)pyrazin-2-yl)-4′H,6′H-spiro[piperidine-4,5′-pyrrolo[1,2-b]pyrazol]-4′-amine] |
| ≤ 50 | < 100 | N[C@@H]1c2ccnn2CC12CCN(c1cnc(Sc3cccc(F)c3F)cn1)CC2 [Example 53, (S)-1-(5-((2,3-difluorophenyl)thio)pyrazin-2-yl)-4′H,6′H-spiro[piperidine-4,5′-pyrrolo[1,2-b]pyrazol]-4′-amine] |
| ≤ 50 | < 100 | N[C@@H]1c2ccnn2CC12CCN(c1cnc(Sc3ccnc(C(F)(F)F)c3Cl)cn1)CC2 [Example 54, (S)-1-(5-((3-chloro-2-(trifluoromethyl)pyridin-4-yl)thio)pyrazin-2-yl)-4′H,6′H-spiro[piperidine-4,5′-pyrrolo[1,2-b]pyrazol]-4′-amine] |
| ≤ 50 | < 100 | COc1c(F)ccc(Sc2cnc(N3CCC4(CC3)Cn3nccc3[C@H]4N)cn2)c1F [Example 55, (S)-1-(5-((2,4-difluoro-3-methoxyphenyl)thio)pyrazin-2-yl)-4′H,6′H-spiro[piperidine-4,5′-pyrrolo[1,2-b]pyrazol]-4′-amine] |
| ≤ 50 | < 100 | N[C@@H]1c2ccnn2CC12CCN(c1cnc(Sc3cccc(Cl)c3C(F)(F)F)cn1)CC2 [Example 56, (S)-1-(5-((3-chloro-2-(trifluoromethyl)phenyl)thio)pyrazin-2-yl)-4′H,6′H-spiro[piperidine-4,5′-pyrrolo[1,2-b]pyrazol]-4′-amine] |
| ≤ 50 | < 100 | Cc1c(F)cccc1Sc1cnc(N2CCC3(CC2)Cn2nccc2[C@H]3N)cn1 [Example 57, (S)-1-(5-((3-fluoro-2-methylphenyl)thio)pyrazin-2-yl)-4′H,6′H-spiro[piperidine-4,5′-pyrrolo[1,2-b]pyrazol]-4′-amine] |
| ≤ 50 | < 100 | N[C@@H]1c2ccnn2CC12CCN(c1cnc(Sc3cccc(C(F)F)c3F)cn1)CC2 [Example 58, (S)-1-(5-((3-(difluoromethyl)-2-fluorophenyl)thio)pyrazin-2-yl)-4′H,6′H-spiro[piperidine-4,5′-pyrrolo[1,2-b]pyrazol]-4′-amine] |
| ≤ 50 | 100 to 500 | N[C@@H]1c2ccnn2CC12CCN(c1cnc(Sc3ccc(C(F)F)cc3F)cn1)CC2 [Example 59, (S)-1-(5-((4-(difluoromethyl)-2-fluorophenyl)thio)pyrazin-2-yl)-4′H,6′H-spiro[piperidine-4,5′-pyrrolo[1,2-b]pyrazol]-4′-amine] |
| ≤ 50 | < 100 | COc1cccc(Sc2cnc(N3CCC4(CC3)Cn3nccc3[C@H]4N)cn2)c1F [Example 60, (S)-1-(5-((2-fluoro-3-methoxyphenyl)thio)pyrazin-2-yl)-4′H,6′H-spiro[piperidine-4,5′-pyrrolo[1,2-b]pyrazol]-4′-amine] |
| ≤ 50 | < 100 | N[C@@H]1c2ccnn2CC12CCN(c1cnc(Sc3cccc4ncccc34)cn1)CC2 [Example 61, (S)-1-(5-(quinolin-5-ylthio)pyrazin-2-yl)-4′H,6′H-spiro[piperidine-4,5′-pyrrolo[1,2-b]pyrazol]-4′-amine] |
| ≤ 50 | 100 to 500 | Cc1c(Cl)cncc1Sc1cnc(N2CCC3(CC2)Cn2nccc2[C@H]3N)cn1 [Example 62, (S)-1-(5-((5-chloro-4-methylpyridin-3-yl)thio)pyrazin-2-yl)-4′H,6′H-spiro[piperidine-4,5′-pyrrolo[1,2-b]pyrazol]-4′-amine] |
| ≤ 50 | < 100 | N[C@@H]1c2ccnn2CC12CCN(c1cnc(Sc3ccccc3Cl)cn1)CC2 [Example 63, (S)-1-(5-((2-chlorophenyl)thio)pyrazin-2-yl)-4′H,6′H-spiro[piperidine-4,5′-pyrrolo[1,2-b]pyrazol]-4′-amine] |
| ≤ 50 | < 100 | COc1ccc(Sc2cnc(N3CCC4(CC3)Cn3nccc3[C@H]4N)cn2)c(F)c1 [Example 64, (S)-1-(5-((2-fluoro-4-methoxyphenyl)thio)pyrazin-2-yl)-4′H,6′H-spiro[piperidine-4,5′-pyrrolo[1,2-b]pyrazol]-4′-amine] |
| ≤ 50 | < 100 | Cn1cnc2ccc(Sc3cnc(N4CCC5(CC4)Cn4nccc4[C@H]5N)cn3)cc21 [Example 65, (S)-1-(5-((1-methyl-1H-benzo[d]imidazol-6-yl)thio)pyrazin-2-yl)-4′H,6′H-spiro[piperidine-4,5′-pyrrolo[1,2-b]pyrazol]-4′-amine] |
| ≤ 50 | < 100 | N#Cc1ccc(Sc2cnc(N3CCC4(CC3)Cn3nccc3[C@H]4N)cn2)c2cccnc12 [Example 66, (S)-5-((5-(4′-amino-4′H,6′H-spiro[piperidine-4,5′-pyrrolo[1,2-b]pyrazol]-1-yl)pyrazin-2-yl)thio)quinoline-8-carbonitrile] |
| ≤ 50 | < 100 | N[C@@H]1c2ccnn2CC12CCN(c1cnc(Sc3ccc(C(F)(F)F)c4ncccc34)cn1)CC2 [Example 67, (S)-1-(5-((8-(trifluoromethyl)quinolin-5-yl)thio)pyrazin-2-yl)-4′H,6′H-spiro[piperidine-4,5′-pyrrolo[1,2-b]pyrazol]-4′-amine] |
| ≤ 50 | < 100 | N[C@@H]1c2ccnn2CC12CCN(c1cnc(Sc3ccc(F)c4ncccc34)cn1)CC2 [Example 68, (S)-1-(5-((8-fluoroquinolin-5-yl)thio)pyrazin-2-yl)-4′H,6′H-spiro[piperidine-4,5′-pyrrolo[1,2-b]pyrazol]-4′-amine] |
| ≤ 50 | < 100 | N[C@@H]1c2ccnn2CC12CCN(c1cnc(Sc3cccc(C4CC4)c3F)cn1)CC2 [Example 69, (S)-1-(5-((3-cyclopropyl-2-fluorophenyl)thio)pyrazin-2-yl)-4′H,6′H-spiro[piperidine-4,5′-pyrrolo[1,2-b]pyrazol]-4′-amine] |
